Test: gradient 5% acetonitrile 3 min, to 50% in 2 min, to 85% in 15 min, held 3 min, 100 µL/min
Settings: column: Zorbax Extend-C18 2.1 x 50 mm; eluents: water / acetonitrile, 0.1% formic acid
Method in brief: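 Retention times come from adduct peaks that were picked computationally and then checked by hand. The standards, pure and pooled in mixtures of ~100 molecules, were run on a Zorbax Extend-C18 column (2.1 × 50 mm, 1.8 μm) at 100 μL/min with water and acetonitrile, each with 0.1% formic acid. Detection was by quadrupole time-of-flight mass spectrometry in positive and negative ionization mode, with a dead volume of 40 μL and a dwell volume of 900 μL.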

Row | SMILES | RP-LC retention time [s]
1 | Cc1cccc(Cn2c(CN3CCC(C(=O)NC4CCCCCCC4)CC3)cc3ccccc32)c1 | 936
2 | CCNc1cc(N2CCCC(CCC(=O)NCCc3cccs3)C2)ncn1 (configuration not stated) | 639
3 | CCCn1cc(-c2nc(-c3ccncc3)no2)c(=O)c2cc(F)ccc21 | 728
4 | O=C(NCc1cccnc1)c1cccn1Cc1noc(-c2ccc(Cl)cc2)n1 | 701
5 | CC(C)NC(=O)C1CCN(c2nc3ccc(-c4cccnc4)nc3s2)CC1 | 605
6 | O=C(NCc1[nH]nc2ccccc12)C1CC(=O)N(c2cccc(Cl)c2)C1 (configuration not stated) | 743
7 | CC(C)c1ccc(S(=O)(=O)N2CCc3nn(C)c(=O)n3CC2)cc1 | 785
8 | Cc1nc(-c2csc(S(=O)(=O)N3CCC(C(=O)Nc4ccccc4)CC3)c2)no1 | 878
9 | CC(=O)Oc1ccc(Nc2cc(C)nc3nc(-c4cccnc4)nn23)cc1 | 688
10 | Cc1ccc(C(=O)NCCc2ncc(C)n2C2CCC2)s1 | 564
11 | CCOc1ccc(CNC(=O)c2ccc3c(c2)nc2n3CCN(C3CCCCC3)C2=O)cc1 | 830
12 | CCOC(=O)c1ccc(Nc2c(-c3ccc(N4CCOCC4)cc3)nc3cnccn23)cc1 | 795
13 | O=C(NCc1ccccn1)C1CC(=O)N(c2n[nH]c3cc(Br)ccc23)C1 (configuration not stated) | 600
14 | O=C(Cc1cccs1)Nc1cnc(-c2ccccc2)nc1 | 893
15 | N#Cc1cccc(NC(=O)Cn2cnc3nc4c(cc3c2=O)CCCC4)c1 | 700
16 | CC(=O)N1c2ccccc2CC1c1nc(C(C)C)no1 (configuration not stated) | 841
17 | COc1ccc2c(c1)sc1ncc(C(=O)N3CCN(c4ccccn4)CC3)c(=O)n12 | 589
18 | O=C(NC1CCCC1)C1CCCN(S(=O)(=O)Cc2ccccc2Cl)C1 (configuration not stated) | 915
19 | Cc1cc(C)cc(NC(=O)Cn2nc3n(c2=O)CCCCC3)c1 | 703
20 | Cn1nc(C(=O)N2CCC(C(=O)NC3CCCCCC3)CC2)c2c1CCN(C(=O)c1ccccc1)C2 | 742
21 | O=C(NC1CCCCC1)C1CCCN(S(=O)(=O)Cc2ccccc2Cl)C1 (configuration not stated) | 967
22 | O=C(Cc1nc(-c2cnccn2)n[nH]1)NCc1ccccc1 | 583
23 | C=CCN(CC=C)c1nc(-c2ccc(Cl)cc2Cl)nc2ccccc12 | 933

Row | SMILES | RP-LC retention time [s]
24 | Cc1csc(-c2cc(S(=O)(=O)N(C)Cc3ccco3)c(C)n2C)n1 | 1000
25 | CCn1c(=O)c(NCc2ccc(C(C)C)cc2)nc2ccncc21 | 720
26 | Cc1ccc(CNC(=O)C2CCN(c3nnc(C)c4c(C)n(-c5ccccc5)nc34)CC2)o1 | 710
27 | CN(c1ccc(F)cc1)S(=O)(=O)N1CCCC(C(=O)N2CCN(c3ncccn3)CC2)C1 (configuration not stated) | 864
28 | CC(C)CN1Cc2c(nc3ccccc3c2C(=O)N2CCC(C)CC2)C1=O | 834
29 | CCc1ccccc1NC(=O)c1cccn1Cc1noc(C)n1 | 845
30 | Nc1cc(C2CCN(S(=O)(=O)Cc3ccc(F)cc3)CC2)no1 | 747
31 | Cn1nccc1-c1cccc(-c2noc(-c3cc(F)ccc3F)n2)c1 | 1100
32 | Cc1ccccc1N1C(=O)CN(S(=O)(=O)c2ccccc2)CC1(C)C(=O)NC1CCCC1 (configuration not stated) | 920
33 | COc1ccccc1NC(=O)N1CCCC(Cn2c(C3CC3)nc3cccnc32)C1 (configuration not stated) | 681
34 | CCOC(=O)CC(=O)Nc1ccc(-c2nc(-c3cc(C)ccc3C)co2)cc1 | 1110
35 | CC1(C)CC(=O)C2=C(C1)N(CC1CCCO1)C(=O)C2(NC(=O)c1ccc(Cl)cc1)C(F)(F)F (configuration not stated) | 975
36 | CCOC(=O)c1[nH]c(C)c(CCC(=O)Nc2ccc3c(c2)OCO3)c1C | 819
37 | Cc1oc(-c2[nH]ncc2C(=O)N2CCCC2)cc1S(=O)(=O)Nc1ccc(F)cc1F | 698
38 | O=C(O)Cc1sc(-c2ccccc2)nc1-c1ccc(Cl)cc1 | 1140
39 | CCC(CC)C(=O)Nc1nc(-c2ccc3c(c2)N(C)C(=O)CO3)cs1 | 929
40 | Cc1noc2nc(C)n(CC(=O)NCc3ccccc3)c(=O)c12 | 716
41 | COc1ccc(Cl)c2c(=O)c3c([nH]c12)CCN(CC(=O)Nc1ccc(C)cc1)C3 | 632
42 | O=C(NCCc1ccccc1)N(C1CCOCC1)C1CCN(Cc2cccnc2)CC1 | 604
43 | O=C(NCc1cccs1)c1cc2n(n1)CCCC2 | 753
44 | COc1ccc(CC(=O)N2CCN(c3cc(C)n4cnnc4n3)CC2)cc1OC | 578
45 | Cc1oc2c(c1C(=O)N1CCN(c3cccc(C(F)(F)F)c3)CC1)C1=NCCN1C=N2 | 692
46 | O=C(NCc1cccc(Cl)c1)C1CCCN(c2nc3ncccc3n3cccc23)C1 (configuration not stated) | 664

Row | SMILES | RP-LC retention time [s]
47 | CCOc1ccc(NC(=O)CSC2CCCCC2)cc1 | 975
48 | COc1cc(OC)cc(C(=O)N2CCCC2COc2ccc(C(=O)N3CCCC3)cc2)c1 (configuration not stated) | 807
49 | CN1C(=O)C(CC(=O)NCC2CCCCC2)Sc2ncccc21 (configuration not stated) | 761
50 | O=C(Cn1nc2n(c1=O)CCCC2)Nc1ccc2c(c1)OCO2 | 638
51 | CN(CCc1noc(-c2ccc(C(=O)N3CCN(c4ccccn4)CC3)cc2)n1)C(=O)c1ccccc1 | 625
52 | c1ccc(-c2nc3cc(-c4noc(-c5ccco5)n4)ccc3o2)cc1 | 1240
53 | COc1ccc(O)c2c(=O)c3c(OC)cc4c(c3oc12)[C@@H]1C=CO[C@@H]1O4 | 979
54 | CCc1ccccc1NC(=O)c1cc(C(C)C)n2nccc2n1 | 1240
55 | Cc1ccc(NC(=O)N2CCC3(CC2)NC(=O)c2ccccc2O3)cc1 | 762
56 | Cc1cc(NC(=O)Cn2ccn3nc(-c4ccc(F)cc4)c(CO)c3c2=O)n[nH]1 | 666
57 | CCOC(=O)c1[nH]c2ccc(F)cc2c1NC(=O)CN(CC)CC | 605
58 | CC(=O)Nc1ccc(Cc2nc(-c3cccc(-c4ccn[nH]4)c3)no2)cc1 | 798
59 | COc1ccc(NC(=O)N2CCCC(Cn3cnc4cccnc43)C2)c(OC)c1 (configuration not stated) | 651
60 | COc1cc2c(c3oc4cccc(O)c4c(=O)c13)C1C=CO[C@@H]1O2 (some centres not stated) | 989
61 | CCC(=O)n1nc(-c2ccccc2C)nc1N | 875
62 | CN(C)CCNC(=O)c1cccc2[nH]c(-c3ccncc3)nc12 | 556
63 | COc1cccc(CNC(=O)C2CCN(S(=O)(=O)c3cn(C(C)C)cn3)CC2)c1 | 714
64 | COc1cc(NC(=O)NC2CCN(c3ccccc3)C2=O)cc(OC)c1 (configuration not stated) | 768
65 | CCc1ccc(NC(=O)C2(C)Oc3cccnc3N(CC)C2=O)cc1 (configuration not stated) | 982
66 | Cc1ccc(-c2nnc(-c3cccc(S(=O)(=O)NC(C)(C)CO)c3)o2)cc1 | 955
67 | O=C(N[C@H]1C[C@@H]2C[C@H]1CN2C(=O)c1ccoc1)c1ccccc1 | 663

Source: the METLIN SMRT retention time set (Domingo-Almenara et al. 2019)
